Experimental data reported in US4948782A, “A method of promoting the growth of domestic animals with erythromycin derivative containing composition” (Kitasato Kenkyusho, priority 1987, dated 1990).

Legend:
Type in all cases: cell-based
Bacillus subtilis = assay: MIC, Bacillus subtilis (BS); conditions: for MIC: read-out: MIC BS
[1] = test system: Staphylococcus aureus ATCC 6538P; assay: MIC, Staphylococcus aureus ATCC 6538P (SA(1)); conditions: Staphylococcus aureus ATCC 6538P; for MIC: Staphylococcus aureus, ATCC6538P, read-out: MIC SA (1)
From the text: (§1) The minimum inhibitory concentrations (MIC: mcg/ml) of the erythromycin derivatives of the present invention and the control erythromycin derivative (*) as the known growth promoting agent on typical test bacteria are shown in the following Tables 1 to 5.
SA(1): Staphylococcus aureus ATCC 6538P

Bacillus cereus IFO 3001 = assay: MIC, Bacillus cereus IFO 3001 (BC); conditions: for MIC: Bacillus cereus, IFO3001, Bacillus cereus IFO 3001, read-out: MIC BC
[2] = test system: Staphylococcus aureus FDA 209P; assay: MIC, Staphylococcus aureus FDA 209P (SA(2)); conditions: Staphylococcus aureus FDA 209P; for MIC: Staphylococcus aureus, FDA209P, read-out: MIC SA (2)
From the text: as §1
SA(2): Staphylococcus aureus FDA 209P

Escherichia coli NIHJ = assay: MIC, Escherichia coli NIHJ (EC)
[3] = test system: Klebsiella pneumoniae ATCC 10031; assay: MIC, Klebsiella pneumoniae ATCC 10031 (KP); conditions: Klebsiella pneumoniae ATCC 10031; for MIC: ATCC10031, read-out: MIC KP

Compound	MIC (Bacillus subtilis) [µg/mL]	MIC [1] [µg/mL]	MIC (Bacillus cereus IFO 3001) [µg/mL]	MIC [2] [µg/mL]	MIC (Escherichia coli NIHJ) [µg/mL]	MIC [3] [µg/mL]	MIC BS (Bacillus subtilis) [µg/mL]	MIC SA (1) [1] [µg/mL]	MIC BC (Bacillus cereus IFO 3001; Bacillus cereus IFO 3001) [µg/mL]	MIC SA (2) [2] [µg/mL]	MIC EC (Escherichia coli NIHJ) [µg/mL]	MIC KP [3] [µg/mL]
CCC1OC(=O)C(C)C(OC2CC(C)(OC)C(O)C(C)O2)C(C)C(OC2OC(C)CC([N+]3(CC)CCCC3)C2O)C2(C)CC(C)=C(O2)C(C)C(O)C1(C)O (stereo not drawn) [Compound 24]	> 100	> 100	> 100	> 100	> 100	> 100						
CCC1OC(=O)C(C)C(OC2CC(C)(OC)C(O)C(C)O2)C(C)C(OC2OC(C)CC([N+]3(C)CCCCC3)C2O)C2(C)CC(C)=C(O2)C(C)C(O)C1(C)O (stereo not drawn) [Compound 25]	> 100	> 100	> 100	> 100	> 100	> 100						
C#CC[N+](C)(C)C1CC(C)OC(OC2C(C)C(OC3CC(C)(OC)C(O)C(C)O3)C(C)C(=O)OC(CC)C(C)(O)C(O)C(C)C3=C(C)CC2(C)O3)C1O (stereo not drawn) [Compound 27]	100	100	100	100	> 100	> 100						
C#CC[N+](C)(C)C1CC(C)OC(OC2C(C)C(OC3CC(C)(OC)C(O)C(C)O3)C(C)C(=O)OC(CC)C(C)(OC(C)=O)C(OC(C)=O)C(C)C3=C(C)CC2(C)O3)C1O (stereo not drawn) [Compound 28]	50	50	50	50	> 100	> 100						
CCC1OC(=O)C(C)C(OC2CC(C)(OC)C(O)C(C)O2)C(C)C(OC2OC(C)CC([N+](C)(C)CC(=O)OC)C2O)C2(C)CC(C)=C(O2)C(C)C(O)C1(C)O (stereo not drawn) [Compound 30]	> 100	> 100	> 100	> 100	> 100	> 100						
CCC1OC(=O)C(C)C(OC2CC(C)(OC)C(O)C(C)O2)C(C)C(OC2OC(C)CC([N+](C)(C)CC(=O)O)C2O)C2(C)CC(C)=C(O2)C(C)C(O)C1(C)O (stereo not drawn) [Compound 31]	> 100	> 100	> 100	> 100	> 100	> 100						
CCCN(C)C1CC(C)OC(OC2C(C)C(OC3CC(C)(OC)C(O)C(C)O3)C(C)C(=O)OC(CC)C(C)(O)C(O)C(C)C3=C(C)CC2(C)O3)C1O (stereo not drawn) [Compound 36]	> 100	> 100	> 100	> 100	> 100	> 100						
CCC1OC(=O)C(C)C(OC2CC(C)(OC)C(O)C(C)O2)C(C)C(OC2OC(C)CC(N(C)CCO)C2O)C2(C)CC(C)=C(O2)C(C)C(O)C1(C)O (stereo not drawn) [Compound 37]	> 100	> 100	> 100	> 100	> 100	> 100						
C=CCN(CC=C)C1CC(C)OC(OC2C(C)C(OC3CC(C)(OC)C(O)C(C)O3)C(C)C(=O)OC(CC)C(C)(O)C(O)C(C)C3=C(C)CC2(C)O3)C1O (stereo not drawn) [Compound 38]	> 100	> 100	> 100	> 100	> 100	> 100						
C#CCN(CC#C)C1CC(C)OC(OC2C(C)C(OC3CC(C)(OC)C(O)C(C)O3)C(C)C(=O)OC(CC)C(C)(O)C(O)C(C)C3=C(C)CC2(C)O3)C1O (stereo not drawn) [Compound 40]	> 100	> 100	> 100	> 100	> 100	> 100						
C#CCNC1CC(C)OC(OC2C(C)C(OC3CC(C)(OC)C(O)C(C)O3)C(C)C(=O)OC(CC)C(C)(O)C(O)C(C)C3=C(C)CC2(C)O3)C1O (stereo not drawn) [Compound 41]	> 100	> 100	> 100	> 100	> 100	> 100						
C=CC[N+](C)(CC=C)C1CC(C)OC(OC2C(C)C(OC3CC(C)(OC)C(O)C(C)O3)C(C)C(=O)OC(CC)C(C)(O)C(O)C(C)C3=C(C)CC2(C)O3)C1O (stereo not drawn) [Compound 43]	> 100	100	> 100	100	> 100	> 100						
C#CC[N+](C)(CC=C)C1CC(C)OC(OC2C(C)C(OC3CC(C)(OC)C(O)C(C)O3)C(C)C(=O)OC(CC)C(C)(O)C(O)C(C)C3=C(C)CC2(C)O3)C1O (stereo not drawn) [Compound 44]	> 100	> 100	> 100	100	> 100	> 100						
C#CC[N+](C)(CC#C)C1CC(C)OC(OC2C(C)C(OC3CC(C)(OC)C(O)C(C)O3)C(C)C(=O)OC(CC)C(C)(O)C(O)C(C)C3=C(C)CC2(C)O3)C1O (stereo not drawn) [Compound 45]	> 100	100	> 100	100	> 100	> 100						
C=CC[N+](CC=C)(CC=C)C1CC(C)OC(OC2C(C)C(OC3CC(C)(OC)C(O)C(C)O3)C(C)C(=O)OC(CC)C(C)(O)C(O)C(C)C3=C(C)CC2(C)O3)C1O (stereo not drawn) [Compound 46]	> 100	> 100	> 100	> 100	> 100	> 100						
C#CC[N+](CC=C)(CC=C)C1CC(C)OC(OC2C(C)C(OC3CC(C)(OC)C(O)C(C)O3)C(C)C(=O)OC(CC)C(C)(O)C(O)C(C)C3=C(C)CC2(C)O3)C1O (stereo not drawn) [Compound 47]	100	100	50	100	> 100	> 100						
C#CC[N+](CC#C)(CC#C)C1CC(C)OC(OC2C(C)C(OC3CC(C)(OC)C(O)C(C)O3)C(C)C(=O)OC(CC)C(C)(O)C(O)C(C)C3=C(C)CC2(C)O3)C1O (stereo not drawn) [Compound 48]	100	100	100	100	> 100	> 100						
CCCC[N+](C)(C)C1CC(C)OC(OC2C(C)C(OC3CC(C)(OC)C(O)C(C)O3)C(C)C(=O)OC(CC)C(C)(O)C(O)C(C)C3=C(C)CC2(C)O3)C1O (stereo not drawn) [Compound 49]	> 100	100	> 100	100	> 100	> 100						

Results, then the compound that gave them:

MIC (Bacillus subtilis) [µg/mL]	MIC [1] [µg/mL]	MIC (Bacillus cereus IFO 3001) [µg/mL]	MIC [2] [µg/mL]	MIC (Escherichia coli NIHJ) [µg/mL]	MIC [3] [µg/mL]	MIC BS (Bacillus subtilis) [µg/mL]	MIC SA (1) [1] [µg/mL]	MIC BC (Bacillus cereus IFO 3001; Bacillus cereus IFO 3001) [µg/mL]	MIC SA (2) [2] [µg/mL]	MIC EC (Escherichia coli NIHJ) [µg/mL]	MIC KP [3] [µg/mL]	Compound
> 100	> 100	> 100	> 100	> 100	> 100							CCC1OC(=O)C(C)C(OC2CC(C)(OC)C(O)C(C)O2)C(C)C(OC2OC(C)CC([N+]3(CC)CCCCC3)C2O)C2(C)CC(C)=C(O2)C(C)C(O)C1(C)O (stereo not drawn) [Compound 26]
100	100	100	50	> 100	> 100							CCC1OC(=O)C(C)C(OC2CC(C)(OC)C(O)C(C)O2)C(C)C(OC2OC(C)CC([N+](C)(C)CC)C2O)C2(C)CC(C)=C(O2)C(C)C(OC(C)=O)C1(C)OC(C)=O (stereo not drawn) [Compound 29]
> 100	> 100	> 100	> 100	> 100	> 100							CCC1OC(=O)C(C)C(OC2CC(C)(OC)C(O)C(C)O2)C(C)C(OC2OC(C)CC([N+](C)(C)CCF)C2O)C2(C)CC(C)=C(O2)C(C)C(O)C1(C)O (stereo not drawn) [Compound 32]
> 100	> 100	> 100	> 100	> 100	> 100							CCC1OC(=O)C(C)C(OC2CC(C)(OC)C(O)C(C)O2)C(C)C(OC2OC(C)CC([N+](C)(C)CC#N)C2O)C2(C)CC(C)=C(O2)C(C)C(O)C1(C)O (stereo not drawn) [Compound 33]
> 100	> 100	> 100	> 100	> 100	> 100							C=CCN(C)C1CC(C)OC(OC2C(C)C(OC3CC(C)(OC)C(O)C(C)O3)C(C)C(=O)OC(CC)C(C)(O)C(O)C(C)C3=C(C)CC2(C)O3)C1O (stereo not drawn) [Compound 34]
> 100	> 100	> 100	> 100	> 100	> 100							C#CCN(C)C1CC(C)OC(OC2C(C)C(OC3CC(C)(OC)C(O)C(C)O3)C(C)C(=O)OC(CC)C(C)(O)C(O)C(C)C3=C(C)CC2(C)O3)C1O (stereo not drawn) [Compound 35]
> 100	> 100	> 100	> 100	> 100	> 100							C=CCNC1CC(C)OC(OC2C(C)C(OC3CC(C)(OC)C(O)C(C)O3)C(C)C(=O)OC(CC)C(C)(O)C(O)C(C)C3=C(C)CC2(C)O3)C1O (stereo not drawn) [Compound 39]
> 100	> 100	> 100	> 100	> 100	> 100							C#CCN(CC=C)C1CC(C)OC(OC2C(C)C(OC3CC(C)(OC)C(O)C(C)O3)C(C)C(=O)OC(CC)C(C)(O)C(O)C(C)C3=C(C)CC2(C)O3)C1O (stereo not drawn) [Compound 42]
						> 100	> 100	> 100	> 100	> 100	> 100	C#CC[N+](C)(C)C1CC(C)OC(OC2C(C)C(OC3CC(C)(OC)C(O)C(C)O3)C(C)C(=O)OC(CC)C(C)(O)C(O)C(C)C3=C(C)CC2(C)O3)C1O (stereo not drawn) [Compound 51]
> 100	> 100	> 100	> 100	> 100	> 100							CCC1OC(=O)C(C)C(OC2CC(C)(OC)C(O)C(C)O2)C(C)C(OC2OC(C)CC(NC)C2O)C2(C)CC(C)=C(O2)C(C)C(OC(C)=O)C1(C)OC(C)=O (stereo not drawn) [Compound 52]
